Laboratory results reported in patent publication US20230159510A1, “NOVEL PRMT5 INHIBITORS” (AMGEN INC., priority 2020, published 2023).
Like-named read-outs stand apart in the source and are kept apart here.

Assays:
HCT116 MTAP null cells = assay: HCT116 proliferation assay, MTAP null cells (CellTiter-Glo, 6 days); assay type: cell-based; conditions: read-out: Protif_ HCT116-MTAP null IC50
Procedure, shortened: (§1)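 RPMI 1640/10% FBS; overnight attachment at 37° C, 5% CO2; 8–9-pt 1:3 titration, top 1 or 10 µM; DMSO ctrl; luminescence readout.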

HCT116 WT cells = assay: HCT116 proliferation assay, WT cells (CellTiter-Glo, 6 days); assay type: cell-based; conditions: read-out: Prolif_HCT116-WT IC50
Procedure, shortened: as §1

PRMT5/MEP50 = PRMT5/MEP50 (Homo sapiens, UniProt O14744); assay: MTase-Glo methyl transferase assay, Method B (FL-Histone H2A, 1 µM MTA, 1 h pre-incubation); assay type: biochemical; parameters: purchased Reaction Biology Corp RD-11-292; conditions: read-out: PRMT5 MTase Glo Ki (nM, Meth. B)
Sequence of PRMT5/MEP50 (O14744 2-637 limits assumed): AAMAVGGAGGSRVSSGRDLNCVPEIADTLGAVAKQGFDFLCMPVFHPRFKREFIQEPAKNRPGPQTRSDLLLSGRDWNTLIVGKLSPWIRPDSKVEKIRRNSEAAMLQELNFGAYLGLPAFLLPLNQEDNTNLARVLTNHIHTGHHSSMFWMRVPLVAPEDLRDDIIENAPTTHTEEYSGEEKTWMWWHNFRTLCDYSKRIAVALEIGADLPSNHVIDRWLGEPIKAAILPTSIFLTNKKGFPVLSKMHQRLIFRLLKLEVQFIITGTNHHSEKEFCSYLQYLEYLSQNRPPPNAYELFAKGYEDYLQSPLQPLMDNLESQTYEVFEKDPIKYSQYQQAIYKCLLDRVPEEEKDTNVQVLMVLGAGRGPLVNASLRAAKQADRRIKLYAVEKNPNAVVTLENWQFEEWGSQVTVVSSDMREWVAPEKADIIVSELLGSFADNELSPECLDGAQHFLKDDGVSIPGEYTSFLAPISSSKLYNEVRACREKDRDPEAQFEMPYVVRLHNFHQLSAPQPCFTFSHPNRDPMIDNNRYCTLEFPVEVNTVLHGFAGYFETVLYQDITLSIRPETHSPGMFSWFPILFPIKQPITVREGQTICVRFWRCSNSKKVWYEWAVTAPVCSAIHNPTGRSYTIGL
Sequence of PRMT5/MEP50 (Q9BQA1 2-342 partner limits assumed): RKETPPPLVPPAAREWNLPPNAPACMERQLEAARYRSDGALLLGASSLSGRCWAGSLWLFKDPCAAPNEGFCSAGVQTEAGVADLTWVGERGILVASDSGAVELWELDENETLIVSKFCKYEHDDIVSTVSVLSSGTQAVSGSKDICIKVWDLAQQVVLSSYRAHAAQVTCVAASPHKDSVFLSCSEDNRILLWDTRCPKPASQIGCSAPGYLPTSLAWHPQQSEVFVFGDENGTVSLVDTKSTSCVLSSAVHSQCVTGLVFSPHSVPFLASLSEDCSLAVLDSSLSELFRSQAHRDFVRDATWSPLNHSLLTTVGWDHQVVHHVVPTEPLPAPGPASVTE
Procedure, shortened: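 PRMT5/MEP50 (4 nM) was pre-incubated 1 h with compound, 5 µM SAM and 1 µM MTA, then started with 2.5 µM FL-Histone H2A in Tris pH 8.0 buffer. After 20 h at room temperature, SAH was detected by MTase-Glo luminescence, and IC50/KI were fitted from dose-response curves.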

Row | Structure (SMILES) | IC50 (HCT116 MTAP null cells; HCT116-MTAP null, 144 h) [µM] | IC50 (HCT116 WT cells; Homo sapiens, HCT-116, 144 h) [µM] | Ki (PRMT5/MEP50) [nM] | IC50 (HCT116 MTAP null cells) [µM] | IC50 (HCT116 WT cells) [µM]
1 | Cc1cc2cc(C(=O)N(Cc3ccc(C(F)(F)F)cn3)C3CC(C)(C)c4ccccc43)ccc2nc1N (stereo not drawn) [Example 594, 2-amino-N-(3,3-dimethyl-2,3-dihydro-1H-inden-1-yl)-3-methyl-N-((5-(trifluoromethyl)pyridin-2-yl)methyl)quinoline-6-carboxamide] | 0.64 | > 1 | 26 | – | –
2 | Cc1cc2cc(C(=O)N(Cc3ccc(C(F)(F)F)cn3)C3CC(C)c4ccccc43)ccc2nc1N (stereo not drawn) [Example 595, 2-amino-3-methyl-N-(3-methyl-2,3-dihydro-1H-inden-1-yl)-N-((5-(trifluoromethyl)pyridin-2-yl)methyl)quinoline-6-carboxamide] | 0.99 | 8.2 | 21.5 | – | –
3 | Cc1cc2cc(C(=O)N(Cc3ccc(C(F)(F)F)cn3)CC3CCOCC3C)ccc2nc1N (stereo not drawn) [Example 596, 2-amino-3-methyl-N-((3-methyltetrahydro-2H-pyran-4-yl)methyl)-N-((5-(trifluoromethyl)pyridin-2-yl)methyl)quinoline-6-carboxamide] | 0.352 | > 10 | 17.1 | – | –
4 | Cc1cc2cc(C(=O)N(Cc3cncc(F)c3)Cc3ccc(C(F)(F)F)cn3)ccc2nc1N [Example 597, 2-amino-N-((5-fluoropyridin-3-yl)methyl)-3-methyl-N-((5-(trifluoromethyl)pyridin-2-yl)methyl)quinoline-6-carboxamide] | 0.3 | > 1 | 6.35 | – | –
5 | Cc1cc2cc(C(=O)N(Cc3cnc4[nH]ccc4c3)Cc3ccc(C(F)(F)F)cn3)ccc2nc1N [Example 598, 2-amino-3-methyl-N-(1H-pyrrolo [2,3-b]pyridin-5-ylmethyl)-N-[[5-(trifluoromethyl)-2-pyridyl]methyl]quinoline-6-carboxamide] | 0.18 | > 1 | 2.44 | – | –
6 | Cc1cc2cc(C(=O)N(Cc3ccc(C(F)(F)F)cn3)Cc3cc4c([nH]c3=O)CCC4)ccc2nc1N [Example 599, 2-amino-3-methyl-N-[(2-oxo-1,5,6,7-tetrahydrocyclopenta[b]pyridin-3-yl)methyl]-N-[[5-(trifluoromethyl)-2-pyridyl]methyl] quinoline-6-carboxamide] | 0.28 | > 1 | 3.12 | – | –
7 | Cc1cc2cc(C(=O)N(Cc3cccc(O)c3)Cc3ccc(C(F)(F)F)cn3)ccc2nc1N [Example 600, 2-amino-N-[(3-hydroxyphenyl)methyl]-3-methyl-N-[[5-(trifluoromethyl)-2-pyridyl]methyl] quinoline-6-carboxamide] | 0.044 | > 1 | 1.83 | – | –
8 | Cc1cc2cc(C(=O)N(Cc3ccc(C(F)(F)F)cn3)[C@@H]3CCc4ccccc43)ccc2nc1N [Example 601, 2-amino-N-[(1R)-indan-1-yl]-3-methyl-N-[[5-(trifluoromethyl)-2-pyridyl]methyl] quinoline-6-carboxamide] | 0.038 | 0.82 | 1.78 | – | –
9 | Cc1cc2cc(C(=O)N(Cc3ccc(C(F)(F)F)cn3)C3CCC(C)c4ccccc43)ccc2nc1N (stereo not drawn) [Example 602, 2-amino-3-methyl-N-(4-methyl-1,2,3,4-tetrahydronaphthalen-1-yl)-N-((5-(trifluoromethyl)pyridin-2-yl)methyl)quinoline-6-carboxamide] | 0.085 | > 1 | 7.26 | – | –
10 | Cc1cc2cc(C(=O)N(Cc3ccc(C(F)(F)F)cn3)C3CCCc4[nH]ccc43)ccc2nc1N (stereo not drawn) [Example 603, 2-amino-3-methyl-N-(4,5,6,7-tetrahydro-1H-indol-4-yl)-N-((5-(trifluoromethyl)pyridin-2-yl)methyl)quinoline-6-carboxamide] | 0.317 | > 1.5 | 23.7 | – | –
11 | Cc1nc2c(s1)C(N(Cc1ccc(C(F)(F)F)cn1)C(=O)c1ccc3nc(N)c(C)cc3c1)CCC2 (stereo not drawn) [Example 604, 2-amino-3-methyl-N-(2-methyl-4,5,6,7-tetrahydrobenzo[d]thiazol-7-yl)-N-((5-(trifluoromethyl)pyridin-2-yl)methyl)quinoline-6-carboxamide] | 0.044 | 0.4 | 5.46 | – | –
12 | Cc1cc2cc(C(=O)N(Cc3ccc(C(F)(F)F)cn3)C3CCCc4nn(C)cc43)ccc2nc1N (stereo not drawn) [Example 605, 2-amino-3-methyl-N-(2-methyl-4,5,6,7-tetrahydro-2H-indazol-4-yl)-N-((5-(trifluoromethyl)pyridin-2-yl)methyl)quinoline-6-carboxamide] | 0.145 | > 1.3 | 6.2 | – | –

Further lines, results first:

Row | IC50 (HCT116 MTAP null cells; HCT116-MTAP null, 144 h) [µM] | IC50 (HCT116 WT cells; Homo sapiens, HCT-116, 144 h) [µM] | Ki (PRMT5/MEP50) [nM] | IC50 (HCT116 MTAP null cells) [µM] | IC50 (HCT116 WT cells) [µM] | Structure (SMILES)
13 | 0.027 | 0.28 | 2.9 | – | – | Cc1cc2cc(C(=O)N(Cc3ccc(C(F)(F)F)cn3)C3CCCc4occc43)ccc2nc1N (stereo not drawn) [Example 606, 2-amino-3-methyl-N-(4,5,6,7-tetrahydrobenzofuran-4-yl)-N-((5-(trifluoromethyl)pyridin-2-yl)methyl)quinoline-6-carboxamide]
14 | 0.37 | > 3.2 | 7.26 | – | – | Cc1cc2cc(C(=O)N(Cc3ccc(C(F)(F)F)cn3)C3CCc4sc(Cl)cc43)ccc2nc1N (stereo not drawn) [Example 607, 2-amino-N-(2-chloro-5,6-dihydro-4H-cyclopenta[b]thiophen-4-yl)-3-methyl-N-((5-(trifluoromethyl)pyridin-2-yl)methyl)quinoline-6-carboxamide]
15 | 0.4 | > 1 | 5.26 | – | – | Cc1cc2cc(C(=O)N(Cc3ccc(C(F)(F)F)cn3)C3COc4ccccc43)ccc2nc1N (stereo not drawn) [Example 608, 2-amino-N-(2,3-dihydrobenzofuran-3-yl)-3-methyl-N-((5-(trifluoromethyl)pyridin-2-yl)methyl)quinoline-6-carboxamide]
16 | 0.54 | > 1 | 26.8 | – | – | Cc1cc2cc(C(=O)N(Cc3ccc(C(F)(F)F)cn3)[C@@H]3c4ccccc4C[C@H]3O)ccc2nc1N [Example 609, 2-amino-N-((1R,2R)-2-hydroxy-2,3-dihydro-1H-inden-1-yl)-3-methyl-N-((5-(trifluoromethyl)pyridin-2-yl)methyl)quinoline-6-carboxamide]
17 | 0.54 | > 1 | 9.6 | – | – | Cc1cc2cc(C(=O)N(Cc3ccc(C(F)(F)F)cn3)C3COc4c3ccc(C)c4C)ccc2nc1N (stereo not drawn) [Example 610, 2-amino-N-(6,7-dimethyl-2,3-dihydrobenzofuran-3-yl)-3-methyl-N-((5-(trifluoromethyl)pyridin-2-yl)methyl)quinoline-6-carboxamide]
18 | 0.07 | > 1 | 3 to 7 | – | – | COC(CN(Cc1ccc(C(F)(F)F)cn1)C(=O)c1ccc2nc(N)c(C)cc2c1)C(F)(F)F (stereo not drawn) [Example 611, 2-amino-3-methyl-N-(3,3,3-trifluoro-2-methoxypropyl)-N-((5-(trifluoromethyl)pyridin-2-yl)methyl)quinoline-6-carboxamide]
19 | 0.34 | > 1 | 7.56 | – | – | Cc1cc2cc(C(=O)N(Cc3ccc(C(F)(F)F)cn3)C3CCCC(O)C3)ccc2nc1N (stereo not drawn) [Example 612, 2-amino-N-(3-hydroxycyclohexyl)-3-methyl-N-((5-(trifluoromethyl)pyridin-2-yl)methyl)quinoline-6-carboxamide]
20 | 0.269 | 3.9 | 4.35 | – | – | COC(CN(Cc1ccc(C(F)(F)F)cn1)C(=O)c1ccc2nc(N)c(C)cc2c1)C(C)C (stereo not drawn) [Example 613, 2-amino-N-(2-methoxy-3-methylbutyl)-3-methyl-N-((5-(trifluoromethyl)pyridin-2-yl)methyl)quinoline-6-carboxamide]
21 | 0.95 | > 1 | 9.42 | – | – | Cc1cc2cc(C(=O)N(Cc3ccc(C(F)(F)F)cn3)CC3CCn4ccnc4C3)ccc2nc1N (stereo not drawn) [Example 614, 2-amino-3-methyl-N-((5,6,7,8-tetrahydroimidazo [1,2-a]pyridin-7-yl)methyl)-N-((5-(trifluoromethyl)pyridin-2-yl)methyl)quinoline-6-carboxamide]
22 | 0.276 | 3.5 | 1.62 | – | – | Cc1cc2cc(C(=O)N(Cc3ccc(C(F)(F)F)cn3)Cc3ccc4cc[nH]c4n3)ccc2nc1N [Example 615, N-((1H-pyrrolo [2,3-b]pyridin-6-yl)methyl)-2-amino-3-methyl-N-((5-(trifluoromethyl)pyridin-2-yl)methyl)quinoline-6-carboxamide]
23 | 0.32 | > 1 | 3.29 | – | – | Cc1cc2cc(C(=O)N(Cc3ccc4[nH]c(N)nc4c3)Cc3ccc(C(F)(F)F)cn3)ccc2nc1N [Example 616, 2-amino-N-((2-amino-1H-benzo [d]imidazol-5-yl)methyl)-3-methyl-N-((5-(trifluoromethyl)pyridin-2-yl)methyl)quinoline-6-carboxamide]
24 | 0.286 | > 1 | 1.72 | – | – | Cc1cc2cc(C(=O)N(Cc3ccc(C(F)(F)F)cn3)CC3CCc4[nH]cnc4C3)ccc2nc1N (stereo not drawn) [Example 617, 2-amino-3-methyl-N-((4,5,6,7-tetrahydro-1H-benzo[d]imidazol-5-yl)methyl)-N-((5-(trifluoromethyl)pyridin-2-yl)methyl)quinoline-6-carboxamide]
25 | – | – | 1.59 | 0.055 | 1.4 | Cc1cc2cc(C(=O)N(Cc3ccc4[nH]ncc4c3)Cc3ccc(C(F)(F)F)cn3)ccc2nc1N [Example 618, N-((1H-indazol-5-yl)methyl)-2-amino-3-methyl-N-((5-(trifluoromethyl)pyridin-2-yl)methyl)quinoline-6-carboxamide]
